This assay concerns the target GluA1o-γ8 (GRIA1o-CACNG8 fusion construct) (Homo sapiens (Human), UniProt P42261+Q8WXS5). Description: Calcium flux assay (FLIPR), inhibition of TARP γ8 dependent AMPA receptor activity. The following applies: GluA1o-γ8 (GRIA1o-CACNG8 fusion) in HEK293 cells, calcium flux after 15 μM glutamate. Type of assay: cell-based. The gist of the method:
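Glutamate (15 μM) was added to a stable HEK293 line carrying the GluA1o–γ8 fusion, which had been preincubated with compound and calcium dye in HEPES buffer, pH 7.4. Normalized FLIPR fluorescence (no compound vs 10 μM CP465022) was fitted with four parameters; pIC50 is the midpoint's negative log.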
(In general: A change in cytosolic calcium serves as a functional read-out for many receptors and channels.)

pIC50: −log10 of the molar value.

As usually defined, the pIC50 is the negative decadic logarithm of the IC50, by convention in mol/L.

GluA1o-γ8 (GRIA1o-CACNG8 fusion construct), sequence (P42261 other isoform, or with tags, fused parts or gaps): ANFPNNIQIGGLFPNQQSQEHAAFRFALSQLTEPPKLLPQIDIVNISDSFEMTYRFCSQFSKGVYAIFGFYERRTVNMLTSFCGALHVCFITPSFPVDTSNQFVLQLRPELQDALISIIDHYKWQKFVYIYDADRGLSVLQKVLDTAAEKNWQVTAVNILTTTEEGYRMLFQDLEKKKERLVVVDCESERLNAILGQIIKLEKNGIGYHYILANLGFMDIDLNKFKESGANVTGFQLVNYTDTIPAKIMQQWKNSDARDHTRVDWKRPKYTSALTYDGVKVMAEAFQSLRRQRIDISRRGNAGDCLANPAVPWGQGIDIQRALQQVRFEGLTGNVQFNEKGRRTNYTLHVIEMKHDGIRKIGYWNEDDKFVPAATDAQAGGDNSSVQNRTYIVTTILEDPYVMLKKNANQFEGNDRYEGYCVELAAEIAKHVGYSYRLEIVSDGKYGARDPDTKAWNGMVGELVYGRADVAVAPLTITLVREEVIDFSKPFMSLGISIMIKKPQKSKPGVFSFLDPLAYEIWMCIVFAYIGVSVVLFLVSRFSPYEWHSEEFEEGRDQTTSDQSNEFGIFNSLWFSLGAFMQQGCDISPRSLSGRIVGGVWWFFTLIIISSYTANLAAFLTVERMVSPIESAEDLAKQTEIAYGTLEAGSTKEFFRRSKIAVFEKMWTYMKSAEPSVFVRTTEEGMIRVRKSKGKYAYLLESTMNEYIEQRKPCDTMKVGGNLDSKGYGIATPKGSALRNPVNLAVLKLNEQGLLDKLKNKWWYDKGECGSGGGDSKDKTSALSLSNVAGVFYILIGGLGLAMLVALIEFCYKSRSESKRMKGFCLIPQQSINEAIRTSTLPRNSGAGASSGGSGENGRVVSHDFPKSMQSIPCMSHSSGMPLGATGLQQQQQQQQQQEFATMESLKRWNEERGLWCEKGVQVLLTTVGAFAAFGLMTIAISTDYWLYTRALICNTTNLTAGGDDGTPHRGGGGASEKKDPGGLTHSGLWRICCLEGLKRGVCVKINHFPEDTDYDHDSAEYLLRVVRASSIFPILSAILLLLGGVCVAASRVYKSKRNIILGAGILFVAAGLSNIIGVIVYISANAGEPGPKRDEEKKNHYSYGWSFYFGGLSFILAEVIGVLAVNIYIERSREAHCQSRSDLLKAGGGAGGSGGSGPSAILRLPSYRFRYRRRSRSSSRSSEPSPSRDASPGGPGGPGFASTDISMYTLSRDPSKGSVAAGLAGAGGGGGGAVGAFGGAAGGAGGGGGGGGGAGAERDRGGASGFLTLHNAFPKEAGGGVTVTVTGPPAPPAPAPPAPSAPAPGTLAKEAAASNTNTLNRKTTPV

On to `Cc1ccc2nc(C(C)(F)F)n(-c3ccc4[nH]c(=O)sc4c3)c2n1` [Example 150, 6-[2-(1,1-Difluoroethyl)-5-methyl-imidazo[4,5-b]pyridin-3-yl]-3H-1,3-benzothiazol-2-one], for which the negative logarithm of the IC50 (pIC50) is 8.80.

Regarding `Cc1ccc2nc(C(F)(F)F)n(-c3ccc4[nH]ncc4c3)c2n1` [Example 151, 3-(1H-Indazol-5-yl)-5-methyl-2-(trifluoromethyl)imidazo[4,5-b]pyridine], the negative logarithm of the IC50 (pIC50) is 7.90.

As to `Cc1ccc2nc(C(C)(F)F)n(-c3ccc4[nH]ncc4c3)c2n1` [Example 152, 2-(1,1-Difluoroethyl)-3-(1H-indazol-5-yl)-5-methyl-imidazo[4,5-b]pyridine], the pIC50 is 7.40.

With `O=C1Cc2cc(-n3c(C(F)(F)F)nc4ccc(C(F)F)nc43)ccc2N1` [Example 153, 5-[5-(Difluoromethyl)-2-(trifluoromethyl)imidazo[4,5-b]pyridin-3-yl]indolin-2-one], the pIC50 was 8.60.

On to `CC(F)(F)c1nc2ccc(C(F)F)nc2n1-c1ccc2c(c1)CC(=O)N2` [Example 154, 5-[2-(1-Difluoroethyl)-5-(difluoromethyl)imidazo[4,5-b]pyridin-3-yl]indolin-2-one], for which the pIC50 is 8.30.

In the case of `CSc1ccc2nc(-c3ccc(F)cc3)n(-c3ccc4[nH]ccc4c3)c2n1` [Example 155, 2-(4-Fluorophenyl)-3-(1H-indol-5-yl)-5-methylsulfanyl-imidazo[4,5-b]pyridine], the pIC50 is 7.40.

On to `Oc1ccc2nc(-c3ccccc3)n(-c3ccc4[nH]ncc4c3)c2n1` [Example 156, 3-(1H-Indazol-5-yl)-2-phenyl-imidazo[4,5-b]pyridin-5-ol], for which the negative-log IC50 (pIC50) is 7.60.

In the case of `COc1ccc2nc(C3CC3)n(-c3ccc4[nH]ncc4c3)c2n1` [Example 157, 2-Cyclopropyl-3-(1H-indazol-5-yl)-5-methoxy-imidazo[4,5-b]pyridine], the negative-log IC50 (pIC50) was 7.90.

`CCc1nc2ccc(C(F)(F)F)nc2n1-c1ccc2[nH]c(=O)oc2c1` [Example 158, 6-[2-Ethyl-5-(trifluoromethyl)imidazo[4,5-b]pyridin-3-yl]-3H-1,3-benzoxazol-2-one]: the pIC50 is 7.50.

Regarding `CC(C)c1nc2ccc(C(F)(F)F)nc2n1-c1ccc2[nH]c(=O)oc2c1` [Example 159, 6-[2-Isopropyl-5-(trifluoromethyl)imidazo[4,5-b]pyridin-3-yl]-3H-1,3-benzoxazol-2-one], the negative-log IC50 (pIC50) was 7.80.

Take `O=c1[nH]c2ccc(-n3c(C4CCOCC4)nc4ccc(C(F)(F)F)nc43)cc2o1` [Example 160, 6-[2-Tetrahydropyran-4-yl-5-(trifluoromethyl)imidazo[4,5-b]pyridin-3-yl]-3H-1,3-benzoxazol-2-one]: the pIC50 was 6.00.

As for `CCOCc1nc2ccc(C(F)(F)F)nc2n1-c1ccc2[nH]c(=O)oc2c1` [Example 162, 6-[2-(Ethoxymethyl)-5-(trifluoromethyl)imidazo[4,5-b]pyridin-3-yl]-3H-1,3-benzoxazol-2-one], the pIC50 was 6.20.

For `CC(C)(C)c1nc2ccc(C(F)(F)F)nc2n1-c1ccc2[nH]c(=O)oc2c1` [Example 163, 6-[2-tert-Butyl-5-(trifluoromethyl)imidazo[4,5-b]pyridin-3-yl]-3H-1,3-benzoxazol-2-one], the negative logarithm of the IC50 (pIC50) was 6.80.

In the case of `O=C1Cc2cc(-n3c(-c4ccnc(F)c4)nc4ccc(C(F)(F)F)nc43)ccc2N1` [Example 164, 5-[2-(2-Fluoro-4-pyridyl)-5-(trifluoromethyl)imidazo[4,5-b]pyridin-3-yl]indolin-2-one], the negative logarithm of the IC50 (pIC50) is 8.90.

For the molecule `Fc1cc(-c2nc3ccc(C(F)(F)F)nc3n2-c2ccc3[nH]ncc3c2)ccn1` [Example 165, 2-(2-Fluoro-4-pyridyl)-3-(1H-indazol-5-yl)-5-(trifluoromethyl)imidazo[4,5-b]pyridine], the pIC50 is 8.80.

As to `O=C1Cc2cc(-n3c(C4CC(F)C4)nc4ccc(C(F)(F)F)nc43)ccc2N1` (stereo not drawn) [Example 166, 5-[2-(3-Fluorocyclobutyl)-5-(trifluoromethyl)imidazo[4,5-b]pyridin-3-yl]indolin-2-one], the pIC50 is 8.00.

Consider `CC[C@@H](C)c1nc2ccc(C(F)(F)F)nc2n1-c1ccc2[nH]ncc2c1` [Example 167, (R)-3-(1H-Indazol-5-yl)-2-sec-butyl-5-(trifluoromethyl)imidazo[4,5-b]pyridine], for which the pIC50 is 8.70.

`CC[C@H](C)c1nc2ccc(C(F)(F)F)nc2n1-c1ccc2[nH]ncc2c1` [Example 168, (S)-3-(1H-Indazol-5-yl)-2-sec-butyl-5-(trifluoromethyl)imidazo[4,5-b]pyridine]: the pIC50 is 8.20.

Take `Fc1ccc(-c2nc3ccc(C(F)(F)F)nc3n2-c2ccc3[nH]ncc3c2)nc1` [Example 169, 2-(5-Fluoro-2-pyridyl)-3-(1H-indazol-5-yl)-5-(trifluoromethyl)imidazo[4,5-b]pyridine]: the pIC50 is 8.50.

With `CC(C)c1ccc2nc(C(F)(F)F)n(-c3ccc4[nH]ncc4c3)c2n1` [Example 170, 3-(1H-Indazol-5-yl)-5-isopropyl-2-(trifluoromethyl)imidazo[4,5-b]pyridine], the pIC50 is 9.20.

For the molecule `CC(C)(C)c1ccc2nc(C(F)(F)F)n(-c3ccc4[nH]ncc4c3)c2n1` [Example 171, 5-tert-Butyl-3-(1H-indazol-5-yl)-2-(trifluoromethyl)imidazo[4,5-b]pyridine], the negative logarithm of the IC50 (pIC50) is 8.50.

As for `CC(C)NC(=O)c1nc2ccc(C(F)(F)F)nc2n1-c1ccc2[nH]ncc2c1` [Example 172, 3-(1H-Indazol-5-yl)-N-isopropyl-5-(trifluoromethyl)imidazo[4,5-b]pyridine-2-carboxamide], the pIC50 was 5.40.

With `O=C(c1nc2ccc(C(F)(F)F)nc2n1-c1ccc2[nH]ncc2c1)N1CCCC1` [Example 173, [3-(1H-Indazol-5-yl)-5-(trifluoromethyl)imidazo[4,5-b]pyridin-2-yl]-pyrrolidin-1-yl-methanone], the pIC50 is 5.00.

Turning to `FC(F)(F)c1ccc(-c2nc3cccnc3n2-c2ccc3[nH]ncc3c2)cc1` [Example 176, 3-(1H-Indazol-5-yl)-2-[4-(trifluoromethyl)phenyl]imidazo[4,5-b]pyridine], the negative-log IC50 (pIC50) is 5.00.

Take `FC(F)(F)Oc1ccc(-c2nc3cccnc3n2-c2ccc3[nH]ncc3c2)cc1` [Example 177, 3-(1H-Indazol-5-yl)-2-[4-(trifluoromethoxy)phenyl]imidazo[4,5-b]pyridine]: the negative-log IC50 (pIC50) is 4.90.

For the molecule `O=C1Cc2cc(-n3c(-c4ccc(C(F)(F)F)cc4)nc4cccnc43)ccc2N1` [Example 178, 5-[2-[4-(Trifluoromethyl)phenyl]imidazo[4,5-b]pyridin-3-yl]indolin-2-one], the pIC50 was 5.50.

Take `CC(C)(C)OC(=O)N1CC(c2nc3ccc(C(F)(F)F)nc3n2-c2ccc3c(c2)CC(=O)N3)C1` [Example 179, tert-Butyl 3-[3-(2-oxoindolin-5-yl)-5-(trifluoromethyl)imidazo[4,5-b]pyridin-2-yl]azetidine-1-carboxylate]: the pIC50 is 5.50.

On to `O=C1Cc2cc(-n3c(C4CNC4)nc4ccc(C(F)(F)F)nc43)ccc2N1` [Example 180, 5-[2-(Azetidin-3-yl)-5-(trifluoromethyl)imidazo[4,5-b]pyridin-3-yl]indolin-2-one], for which the pIC50 is 5.70.

For `Cc1ccc2nc(C)n(-c3ccc4c(c3)CC(=O)N4)c2n1` [Example 181, 5-(2,5-Dimethylimidazo[4,5-b]pyridin-3-yl)indolin-2-one], the pIC50 is 5.60.

In the case of `COC(=O)CCc1nc2ccc(C(F)(F)F)nc2n1-c1ccc2c(c1)CC(=O)N2` [Example 183, Methyl 3-[3-(2-oxoindolin-5-yl)-5-(trifluoromethyl)imidazo[4,5-b]pyridin-2-yl]propanoate], the pIC50 is 5.70.

In the case of `CC(C)c1nc2ccc(C(F)(F)F)nc2n1-c1cc(Br)c2[nH]ncc2c1` [Example 184, 3-(7-Bromo-1H-indazol-5-yl)-2-isopropyl-5-(trifluoromethyl)imidazo[4,5-b]pyridine], the negative logarithm of the IC50 (pIC50) is 11.00.

`Cn1c(=O)sc2cc(-n3c(C4CCC4)nc4ccc(C(F)(F)F)nc43)ccc21` [Example 185, 6-(2-Cyclobutyl-5-(trifluoromethyl)-3H-imidazo[4,5-b]pyridin-3-yl)-3-methylbenzo[d]thiazol-2(3H)-one]: the pIC50 was 7.00.

`FC(F)(F)c1ccc2nc(C(F)(F)F)n(-c3cc(Br)c4[nH]ncc4c3)c2n1` [Example 187, 3-(7-Bromo-1H-indazol-5-yl)-2,5-bis(trifluoromethyl)imidazo[4,5-b]pyridine]: the pIC50 is 11.00.

As to `FC(F)(F)c1ccc2nc(C(F)(F)F)n(-c3cc(-c4ccccc4)c4[nH]ncc4c3)c2n1` [Example 188, 3-(7-Phenyl-1H-indazol-5-yl)-2,5-bis(trifluoromethyl)-3H-imidazo[4,5-b]pyridine], the pIC50 is 6.50.

For `C=Cc1cc(-n2c(C(F)(F)F)nc3ccc(C(F)(F)F)nc32)cc2cn[nH]c12` [Example 189, 2,5-Bis(trifluoromethyl)-3-(7-vinyl-1H-indazol-5-yl)-3H-imidazo[4,5-b]pyridine], the pIC50 is 10.40.

Take `O=c1[nH]c2ccc(-n3cnc4ccc(C(F)(F)F)nc43)cc2s1` [Example 190, 6-(5-(Trifluoromethyl)-3H-imidazo[4,5-b]pyridin-3-yl)benzo[d]thiazol-2(3H)-one]: the pIC50 is 6.50.

Take `CC(C)c1nc2ccc(C(F)(F)F)nc2n1-c1ccc2[nH]nc(F)c2c1` [Example 191, 3-(3-Fluoro-1H-indazol-5-yl)-2-isopropyl-5-(trifluoromethyl)imidazo[4,5-b]pyridine]: the pIC50 was 8.40.

`FC(F)(F)c1nc2ccc(Cl)nc2n1-c1ccc2[nH]ncc2c1` [Example 192, 5-Chloro-3-(1H-indazol-5-yl)-2-(trifluoromethyl)imidazo[4,5-b]pyridine]: the pIC50 was 8.60.

As for `CCc1ccc2nc(C(F)(F)F)n(-c3ccc4[nH]ncc4c3)c2n1` [Example 193, 5-Ethyl-3-(1H-indazol-5-yl)-2-(trifluoromethyl)imidazo[4,5-b]pyridine], the negative logarithm of the IC50 (pIC50) is 8.80.

The values above are taken from patent publication US11312712B2, “Azabenzimidazoles and their use as AMPA receptor modulators” (Janssen Pharmaceutica NV, priority 2015, dated 2022).
